Values after ≈ are worked out from the molar mass of the structure shown. Where a name gives a salt, the structure may show the parent alone.
What was measured:
[1] = tested on: human aortic vascular smooth muscle cell (HASOM cells); test: PDGF-BB induced migration of human aortic vascular smooth muscle cells, Boyden chamber; format: cell-based
Experimental: The cells were then cultured in the presence of these agents for forty-eight hours prior to the migration assay. […] Each well contained an insert with a polycarbonate filter having 8 μm pores. In preparation for the migration assays, the membranes were coated with 0.1% gelatin for 8 hours, aspirated, and allowed to dry for 2 hours.
The M-199 media containing 0.5% BSA and 20 ng/ml human PDGF-B (hPDGF-BB) was placed in the bottom Boyden chamber. Cells were incubated at 5% CO2 at 37° C. for twelve hours and the cells lying on the upper surface of the membrane were scraped off. The insert membranes were removed and the cells on the lower surface of each membrane were stained with hematoxylin. Cell migration was then quantified by counting the cells in five random high-power fields on the lower surface of the membrane. All assays were run in triplicate.

[2] = tested on: cells of porcine origin from a primary explant of porcine carotid artery; test: PDGF induced migration of cells of porcine origin (carotid artery explant), Boyden chamber; format: cell-based; conditions: hPDGF-BB 20 ng/ml; second passage cells; FIG. 13

IC50 ([1]; Homo sapiens, in vitro VSMC migration, read-out: IC50 for blocking VSMC migration)	Structure (SMILES)	inhibition of PDGF-B induced migration of porcine cells [2]	inhibition of PDGF induced migration of HASOM cells ([1]; hPDGF-BB 20 ng/ml, 48 h pre-treatment, 12 h migration, FIG. 12)
1 to 5 ng/mL (≈ 1.09 to 5.47 nM)	CO[C@H]1C[C@@H]2CC[C@@H](C)[C@@](O)(O2)C(=O)C(=O)N2CCCC[C@H]2C(=O)O[C@H]([C@H](C)C[C@@H]2CC[C@@H](O)[C@H](OC)C2)CC(=O)[C@H](C)/C=C(\C)[C@@H](O)[C@@H](OC)C(=O)[C@H](C)C[C@H](C)/C=C/C=C/C=C/1C [rapamycin]		
	Cc1ccc(NC(=O)c2ccc(CN3CCN(C)CC3)cc2)cc1Nc1nccc(-c2cccnc2)n1 [Gleevec, imatinib mesylate]	inhibited PDGF-B induced migration of theses porcine cells a dose dependent manner	potently inhibited PDGF induced migration of HASOM cells in a dose dependent manner

Source: patent US20050261283A1, “Methods and compositions for the treatment of graft failure” (priority 2002, published 2005)
